Test results: ChEMBL document CHEMBL1201862, “PubChem BioAssay data set” (2004)
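Five concentrations, 48 hours, 96-well plates. At the GI50, growth is halved.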 Calls of active or inactive are those of the source. Cut-off read from the data, not from the text of the source: active = GI50 up to about 1.1 µM and inactive = higher. Square brackets hold non-standard residues; d marks the D form. Peptide text beside a SMILES is read from it. Phe(4-Cl) = N[CH](Cc1ccc(Cl)cc1)C(=O)O; 2Nal = N[CH](Cc1ccc2ccccc2c1)C(=O)O; 3Pal = N[CH](Cc1cccnc1)C(=O)O

Tests used:
Test in all cases: inhibition of tumour cell growth, NCI panel, 48 h
PC-3 = system: PC-3
HCC 2998 = system: HCC 2998
DU-145 = system: DU-145
OVCAR-5 = system: OVCAR-5
CCRF-CEM = system: CCRF-CEM
SNB-75 = system: SNB-75
SN12C = system: SN12C
HL-60 = system: HL-60
SF-539 = system: SF-539
786-0 = system: 786-0
K562 = system: K562
BT-549 = system: BT-549
SR = system: SR
NCI-H23 = system: NCI-H23
RPMI-8226 = system: RPMI-8226
SK-MEL-28 = system: SK-MEL-28
HOP-62 = system: HOP-62
OVCAR-4 = system: OVCAR-4
HT-29 = system: HT-29
SK-MEL-2 = system: SK-MEL-2

| SMILES | GI50 (PC-3) | GI50 (HCC 2998) | GI50 (DU-145) | GI50 (OVCAR-5) | GI50 (CCRF-CEM) | GI50 (SNB-75) | GI50 (SN12C) | GI50 (HL-60) | GI50 (SF-539) | GI50 (786-0) | GI50 (K562) | GI50 (BT-549) | GI50 (SR) | GI50 (NCI-H23) | GI50 (RPMI-8226) | GI50 (SK-MEL-28) | GI50 (HOP-62) | GI50 (OVCAR-4) | GI50 (HT-29) | GI50 (SK-MEL-2) |
| --- | --- | --- | --- | --- | --- | --- | --- | --- | --- | --- | --- | --- | --- | --- | --- | --- | --- | --- | --- | --- |
| COC1C(C)OC(OC2CC(C)(O)Cc3cc4c(c(O)c32)C(=O)c2c(O)cc3c(c2C4=O)OC2OC3(C)C(O)C(N(C)C)C2O)C(OC)C1(C)OC (stereo not drawn) | 0.000204 µM (active) | 0.0342 µM (active) | 0.000809 µM (active) | 0.0628 µM (active) | 0.00475 µM (active) | 0.0165 µM (active) | 0.0378 µM (active) | 0.00541 µM (active) | 0.00348 µM (active) | 0.0861 µM (active) | 0.00438 µM (active) | 0.000257 µM (active) | 0.00385 µM (active) | 0.00496 µM (active) | 0.015 µM (active) | 0.00557 µM (active) | 0.0527 µM (active) | 0.19 µM (active) | 0.0243 µM (active) | 0.0158 µM (active) |
| [O-]c1c[n+](-c2ccccc2)no1 | > 100 µM (inactive) | > 100 µM (inactive) | > 100 µM (inactive) | > 100 µM (inactive) | > 100 µM (inactive) | > 100 µM (inactive) | > 100 µM (inactive) | > 100 µM (inactive) | > 100 µM (inactive) | > 100 µM (inactive) | > 100 µM (inactive) | > 100 µM (inactive) | > 100 µM (inactive) | > 100 µM (inactive) | > 100 µM (inactive) | > 100 µM (inactive) | > 100 µM (inactive) | > 100 µM (inactive) | > 100 µM (inactive) | > 100 µM (inactive) |
| CN(C)CCSCCO | > 100 µM (inactive) | > 100 µM (inactive) | > 100 µM (inactive) | > 100 µM (inactive) |  | > 100 µM (inactive) | > 100 µM (inactive) | 97.1 µM (inactive) | > 100 µM (inactive) | > 100 µM (inactive) | > 100 µM (inactive) | > 100 µM (inactive) | > 100 µM (inactive) | > 100 µM (inactive) | > 100 µM (inactive) | > 100 µM (inactive) | > 100 µM (inactive) | > 100 µM (inactive) | > 100 µM (inactive) | > 100 µM (inactive) |
| COc1cc(Cn2c3c(c4c(C(=O)NCCN(C)C)c(O)ccc42)C(=O)c2ccccc2C3=O)cc(OC)c1 | 1.7 µM (inactive) | 1.13 µM (inactive) | 1.67 µM (inactive) | 1.67 µM (inactive) | 0.601 µM (active) | 1.91 µM (inactive) | 1.85 µM (inactive) | 2.04 µM (inactive) | 1.79 µM (inactive) | 0.501 µM (active) | 1.37 µM (inactive) | 2.23 µM (inactive) | 0.31 µM (active) | 2.09 µM (inactive) | 1.87 µM (inactive) | 1.9 µM (inactive) | 2 µM (inactive) | 1.71 µM (inactive) | 1.87 µM (inactive) | 1.8 µM (inactive) |
| O=C(Nc1nc2ccc([N+](=O)[O-])cc2[n+]([O-])n1)C(F)(F)F | 28.2 µM (inactive) | 49.8 µM (inactive) | 37.9 µM (inactive) | 41.8 µM (inactive) | 26.5 µM (inactive) | 46.2 µM (inactive) | 29.4 µM (inactive) | 12.9 µM (inactive) | 45.4 µM (inactive) | 36.1 µM (inactive) | 20 µM (inactive) | 94.2 µM (inactive) | 29.5 µM (inactive) | 26.2 µM (inactive) | 15 µM (inactive) | 47.2 µM (inactive) |  | 26.3 µM (inactive) | 23.3 µM (inactive) | 20.7 µM (inactive) |
| COc1ccc(C(c2ccccc2)N2C(=O)CCC2C(=O)O)cc1OC (stereo not drawn) | > 100 µM (inactive) | > 100 µM (inactive) | > 100 µM (inactive) | > 100 µM (inactive) | > 100 µM (inactive) | > 100 µM (inactive) | > 100 µM (inactive) | > 100 µM (inactive) | > 100 µM (inactive) | > 100 µM (inactive) | > 100 µM (inactive) | > 100 µM (inactive) | > 100 µM (inactive) | > 100 µM (inactive) | > 100 µM (inactive) | 14 µM (inactive) | > 100 µM (inactive) | > 100 µM (inactive) | > 100 µM (inactive) | > 100 µM (inactive) |
| Cc1cc2nc3c(C#N)c(C)c(CCCl)c(Cl)n3c2cc1C | 5.6 µM (inactive) | 2.97 µM (inactive) | 3.84 µM (inactive) | 2.18 µM (inactive) | 2.34 µM (inactive) | 1.87 µM (inactive) | 1.92 µM (inactive) | 2.55 µM (inactive) | 2.51 µM (inactive) | 2 µM (inactive) | 2.39 µM (inactive) | 2.49 µM (inactive) | 2.29 µM (inactive) | 2.12 µM (inactive) | 2.58 µM (inactive) | 4.52 µM (inactive) | 2.44 µM (inactive) | 6.76 µM (inactive) | 2.46 µM (inactive) | 1.87 µM (inactive) |
| Cc1cc(N(CCC#N)CCC#N)ccc1C(=N/NC(=O)c1cc(Cl)ccc1O)/N=N/c1cccc(Cl)c1 | 10.1 µM (inactive) | 12 µM (inactive) | 18.1 µM (inactive) | 41.6 µM (inactive) | 4.41 µM (inactive) | 13.5 µM (inactive) | 19.1 µM (inactive) | 4.48 µM (inactive) | 30.1 µM (inactive) | 11.5 µM (inactive) | 15.7 µM (inactive) | 14.8 µM (inactive) | 6.04 µM (inactive) | 13.7 µM (inactive) | 9.79 µM (inactive) | 16 µM (inactive) | 13.2 µM (inactive) | 8.85 µM (inactive) | 16.1 µM (inactive) | 10.8 µM (inactive) |
| CC(=O)C1=C(C)N(c2ccc(C)cc2)C2(O)C=CC(O)=C3C(=O)c4ccccc4C(=O)C312 (stereo not drawn) | 16.4 µM (inactive) | 16.8 µM (inactive) | 15.4 µM (inactive) | 23.7 µM (inactive) |  | 19.4 µM (inactive) | 13.6 µM (inactive) | 7.76 µM (inactive) | 23.8 µM (inactive) | 9.14 µM (inactive) | 31.3 µM (inactive) | 11 µM (inactive) | 36.9 µM (inactive) | 21.1 µM (inactive) | 3.27 µM (inactive) | 13.1 µM (inactive) | 26.9 µM (inactive) | 12.6 µM (inactive) | 3.89 µM (inactive) | 7.36 µM (inactive) |
| O=c1[nH]c2cc3[nH]c4ncccc4c(=O)c3cc2[nH]1 | > 10 µM (inactive) | > 10 µM (inactive) | > 10 µM (inactive) | > 10 µM (inactive) | > 10 µM (inactive) | > 10 µM (inactive) | > 10 µM (inactive) | > 10 µM (inactive) | > 10 µM (inactive) | > 10 µM (inactive) |  | > 10 µM (inactive) | > 10 µM (inactive) | > 10 µM (inactive) | > 10 µM (inactive) | > 10 µM (inactive) | > 10 µM (inactive) | > 10 µM (inactive) | > 10 µM (inactive) | > 10 µM (inactive) |
| O=C1c2cccnc2S(=O)(=O)N1c1ccc([N+](=O)[O-])cc1 | > 100 µM (inactive) | > 100 µM (inactive) | > 100 µM (inactive) | > 100 µM (inactive) | 68.5 µM (inactive) | > 100 µM (inactive) | > 100 µM (inactive) | 24 µM (inactive) | > 100 µM (inactive) | > 100 µM (inactive) |  | > 100 µM (inactive) | 29.9 µM (inactive) | > 100 µM (inactive) | 57 µM (inactive) | > 100 µM (inactive) | > 100 µM (inactive) | > 100 µM (inactive) | > 100 µM (inactive) | > 100 µM (inactive) |
| Cc1ccc(C2(O)CS/C(=N\C34CC5CC(CC(C5)C3)C4)N2C(P(=O)(O)O)P(=O)(O)O)cc1 (stereo not drawn) | 79.3 µM (inactive) | 68.1 µM (inactive) | > 100 µM (inactive) | 82.8 µM (inactive) |  | 38.6 µM (inactive) | 89.3 µM (inactive) | 37.7 µM (inactive) | > 100 µM (inactive) | > 100 µM (inactive) | 42.7 µM (inactive) | > 100 µM (inactive) | 29.2 µM (inactive) | > 100 µM (inactive) | > 100 µM (inactive) | > 100 µM (inactive) | 49.1 µM (inactive) | > 100 µM (inactive) | > 100 µM (inactive) | 27.5 µM (inactive) |
| Nc1ncn(C2OC(COP(=O)(O)O)C(O)C2O)c(=O)n1 (stereo not drawn) | > 100 µM (inactive) | > 100 µM (inactive) | > 100 µM (inactive) | > 100 µM (inactive) | 1.87 µM (inactive) | > 100 µM (inactive) | 63.5 µM (inactive) | > 64.4 µM (inactive) | > 100 µM (inactive) | > 86.3 µM (inactive) | > 90.8 µM (inactive) | > 100 µM (inactive) | > 91.6 µM (inactive) | > 81.8 µM (inactive) | > 100 µM (inactive) | > 100 µM (inactive) | > 77.4 µM (inactive) | > 100 µM (inactive) | > 100 µM (inactive) | > 100 µM (inactive) |
| CC(=O)NC(Cc1ccc2ccccc2c1)C(=O)NC(Cc1ccc(Cl)cc1)C(=O)NC(Cc1cccnc1)C(=O)NC(CO)C(=O)NC(Cc1ccc(O)cc1)C(=O)NC(CCCN=C(N)N)C(=O)NC(CC(C)C)C(=O)NC(CCCN=C(N)N)C(=O)N1CCCC1C(=O)NC(C)C(N)=O (stereo not drawn) (Ac-[2Nal][Phe(4-Cl)][3Pal]SYRLRPA-NH2; configuration not given here) | > 100 µM (inactive) | > 100 µM (inactive) | > 100 µM (inactive) | > 100 µM (inactive) | > 100 µM (inactive) | 88.9 µM (inactive) | > 100 µM (inactive) | > 100 µM (inactive) | > 100 µM (inactive) | 69.7 µM (inactive) | > 100 µM (inactive) | > 100 µM (inactive) | > 100 µM (inactive) | > 100 µM (inactive) | > 100 µM (inactive) |  | > 100 µM (inactive) | > 100 µM (inactive) | > 100 µM (inactive) | > 100 µM (inactive) |
